How the values were obtained:
Test in all cases: relative viability (nuclei count vs DMSO), 5 days (fraction); higher = more cells survive
[1] = compound: CC1=CC(=CC=C1)NC2=NC(=CS2)C3=CC=NC=C3 + NC(=O)Nc1cc(-c2cccc(F)c2)sc1C(=O)N[C@H]1CCCNC1 [AZD7762] (partner 0.2 µM)
In short: (§1)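 Values are medians from duplicate plates. Each reflects relative viability, defined as the nuclei count of treated wells over that of vehicle wells. Lung cancer cell lines in 1536-well plates were pin-tool dosed one day after seeding with one drug alone or with a fixed anchor-drug dose plus five library-drug doses (not always all listed) in √10 steps, then fixed, stained and imaged at 4× after 5 days.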

[2] = compound: CC1=CC(=CC=C1)NC2=NC(=CS2)C3=CC=NC=C3 + CCNC(=O)c1noc(-c2cc(C(C)C)c(O)cc2O)c1-c1ccc(CN2CCOCC2)cc1 [Luminespib] (partner 0.01 µM)
In short: as §1

Masitinib + Palbociclib = compound: Cc1ccc(NC(=O)c2ccc(CN3CCN(C)CC3)cc2)cc1Nc1nc(-c2cccnc2)cs1 [Masitinib] + CC(=O)c1c(C)c2cnc(Nc3ccc(N4CCNCC4)cn3)nc2n(C2CCCC2)c1=O [Palbociclib] (partner 0.5 µM)
In short: as §1

[3] = compound: CC1=CC(=CC=C1)NC2=NC(=CS2)C3=CC=NC=C3 + CC(=O)c1c(C)c2cnc(Nc3ccc(N4CCNCC4)cn3)nc2n(C2CCCC2)c1=O [Palbociclib] (partner 0.5 µM)
In short: as §1

Cell Line	relative viability ([1]; first compound 0.08 µM)	relative viability ([1]; first compound 0.253 µM)	relative viability ([1]; first compound 0.8 µM)	relative viability ([1]; first compound 2.53 µM)	relative viability ([1]; first compound 8 µM)	relative viability ([2]; first compound 0.08 µM)	relative viability ([2]; first compound 0.253 µM)	relative viability ([2]; first compound 0.8 µM)	relative viability ([2]; first compound 2.53 µM)	relative viability ([2]; first compound 8 µM)	relative viability (Masitinib + Palbociclib; first compound 0.01 µM)	relative viability (Masitinib + Palbociclib; first compound 0.03162 µM)	relative viability (Masitinib + Palbociclib; first compound 0.1 µM)	relative viability (Masitinib + Palbociclib; first compound 0.3162 µM)	relative viability (Masitinib + Palbociclib; first compound 1 µM)	relative viability ([3]; first compound 0.08 µM)	relative viability ([3]; first compound 0.253 µM)	relative viability ([3]; first compound 0.8 µM)	relative viability ([3]; first compound 2.53 µM)	relative viability ([3]; first compound 8 µM)
LCLC-97TM1	0.338	0.292	0.379	0.246	0.376	0.689	0.794	0.839	0.816	0.825	0.192	0.15	0.25	0.285	0.208	0.172	0.216	0.206	0.217	0.276
NCI-H1734	0.559	0.554	0.528	0.647	0.558	0.203	0.22	0.22	0.192	0.191	0.362	0.327	0.393	0.394	0.335	0.352	0.315	0.344	0.347	0.359
LCLC-103H	0.73	0.755	0.725	0.74	0.651	1	0.824	0.878	0.943	0.608	–	0.471	0.458	0.511	0.475	0.402	0.445	0.477	0.406	0.507
RERF-LC-KJ	1.09	0.691	0.775	0.222	0.911	1.06	1.19	0.982	0.999	0.717	1.05	1.02	1.09	1.21	0.938	1	0.998	0.743	0.787	0.618
BEN	0.641	0.614	0.662	0.566	0.659	0.424	0.174	0.488	0.267	0.356	0.42	0.431	0.51	0.513	0.46	0.457	0.521	0.424	0.489	0.482
LC-2-ad	0.823	0.845	0.911	0.835	0.821	0.858	–	1.09	0.768	0.965	0.494	0.474	0.544	0.47	0.503	0.469	0.532	0.466	0.542	0.436
ChaGo-K-1	0.842	0.83	0.835	0.828	0.75	0.525	0.605	0.57	0.589	0.372	0.954	0.952	0.966	0.972	0.897	0.9	0.961	0.946	0.943	0.859
NCI-H1993	0.688	0.706	0.641	0.682	0.749	0.767	0.545	0.546	0.624	0.7	0.674	0.527	0.536	0.516	0.654	0.594	0.604	0.476	0.554	0.533
NCI-H2347	0.613	0.731	0.699	0.778	0.72	0.409	0.248	–	0.555	0.232	0.381	0.389	0.408	0.422	0.444	0.392	0.417	0.413	0.444	0.436
EMC-BAC-2	0.933	1.02	1.14	0.909	1.17	1.15	1.23	1.15	1.1	1.13	0.434	0.473	0.509	0.524	0.51	0.495	0.496	0.526	0.504	0.454
NCI-H3122	0.946	1.01	1.04	1.04	0.96	0.125	0.0766	0.101	0.0836	0.105	0.163	0.197	0.227	0.18	0.175	0.185	0.193	0.384	0.253	0.193
NCI-H2170	0.776	0.829	0.706	0.749	0.521	0.624	0.701	0.775	0.527	0.48	0.383	0.331	0.438	0.403	0.417	0.358	0.403	0.358	0.435	0.299
NCI-H2342	0.44	0.403	0.505	0.377	0.523	0.746	0.717	0.771	0.67	0.676	0.532	0.524	0.566	0.507	0.529	0.455	0.491	0.557	0.503	0.497
EPLC-272H	0.201	0.153	0.445	–	0.215	0.194	0.359	0.218	0.245	0.389	0.299	0.331	0.327	0.295	0.329	0.309	0.315	0.372	–	0.332
NCI-H1975	0.579	0.532	0.591	0.462	0.439	0.252	0.17	0.201	0.249	0.184	0.424	0.517	0.468	0.399	0.587	0.497	0.416	0.51	0.374	0.241
NCI-H647	0.379	0.372	0.558	0.382	0.414	0.114	0.162	0.177	0.313	0.338	0.419	0.369	0.49	0.325	0.375	0.379	0.262	0.369	0.442	0.365

From the supplement of paper PMC10307832
